For one molecule, Km results are on record in paper PMC10484855, “Production, purification, and characterization of cold-active lipase from the psychrotroph Pseudomonas sp. A6” (Brazilian Journal of Microbiology, 2023).

The experiment concerns T1, cold-active lipase from Pseudomonas sp. A6.
T1 construct: 65 kDa by SDS-PAGE
Put plainly: spectrophotometric p-nitrophenol release at […] nm; Lineweaver-Burk plot. It is filed as biochemical. The following applies: 10 °C; phosphate buffer; pH of the Km assay not stated; unit printed ambiguously as 'm mol'.

The structures appear in SMILES notation.

As for `CCCCCCCCCCCC(=O)Oc1ccc([N+](=O)[O-])cc1` [p-nitrophenyl laurate], the Km is reported as 6.6 * 10^−4 m mol L^−1.
